Results on nine compounds are retold here after PubChem BioAssay (NCI).

Values joined by “and” are separate entries in the source; they are usually repeats but may differ in a detail not shown here. Identical values can stand only once.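 Method: 48-hour compound exposure of cells in 96-well plates, five concentrations, linear interpolation of endpoints. Abbreviation: GI50, concentration required for 50% inhibition of growth. TGI denotes the concentration required for complete inhibition of growth.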

Among the test systems are SF-539 CNS; EKVX NSCLC; OVCAR-5 ovarian; HCC-2998 colon; IGROV1 ovarian; SNB-19 CNS; A549 NSCLC; UO-31 renal; TK-10 renal; CAKI-1 renal.
Common to all, as to experiment: NCI tumour cell line growth inhibition, 48 h

Consider `O=C1[C@H]2ON(c3ccccc3)C(c3cccc([N+](=O)[O-])c3)[C@H]2C(=O)N1c1ccc(Cc2ccc(N3C(=O)[C@@H]4ON(c5ccccc5)C(c5cccc([N+](=O)[O-])c5)[C@@H]4C3=O)cc2)cc1` (stereo partly specified), for which the TGI in the experiment on SF-539 CNS, with EKVX NSCLC, in the experiment with OVCAR-5 ovarian, with HCC-2998 colon, in the experiment with IGROV1 ovarian and with SNB-19 CNS was greater than 100000 nM throughout. In addition, the TGI in the experiment on A549 NSCLC, in the experiment on UO-31 renal, in the experiment with TK-10 renal and with CAKI-1 renal was greater than 100000 nM each time.
Turning to `O=C1c2c(O)ccc(O)c2C(=O)c2c(NCCNCCO)ccc(NCCNCCO)c21`, the TGI in the experiment on SF-539 CNS is 70.5 nM and 699 nM and 244 nM; in the experiment with EKVX NSCLC, 3680 nM and 4550 nM and 1280 nM; with OVCAR-5 ovarian, 1050 nM and 4750 nM and 2740 nM; in the experiment with HCC-2998 colon it was 1040 nM and 795 nM and 908 nM; with IGROV1 ovarian it was 1410 nM and 3130 nM and 2210 nM; in the experiment on SNB-19 CNS it was 546 nM and 2080 nM and 790 nM. The TGI with A549 NSCLC was 418 nM and 627 nM; with UO-31 renal, 835 nM and 668 nM and 2550 nM; in the experiment with TK-10 renal it was 1360 nM and 654 nM and 2050 nM; in the experiment on CAKI-1 renal, 1070 nM and 180 nM. For the same compound, the GI50 in the experiment with EKVX NSCLC was 564 nM.
For the compound `C=C(C[N+](C)(C)C)N/N=C/c1oc(-c2ccc(OC)c(OC)c2)c(-c2ccc(OC)c(OC)c2)c1[N+](=O)[O-]`, the TGI with SF-539 CNS was 31600 nM; in the experiment with EKVX NSCLC, greater than 100000 nM; in the experiment with OVCAR-5 ovarian it was 40300 nM; in the experiment with HCC-2998 colon, 35500 nM; with IGROV1 ovarian it was 34300 nM; in the experiment with SNB-19 CNS, greater than 100000 nM. For the same compound, the TGI with A549 NSCLC was greater than 100000 nM; in the experiment with UO-31 renal, 33700 nM; with TK-10 renal, 50600 nM; with CAKI-1 renal, greater than 100000 nM.
`CC12O[Te]34OC1(C)C(C)(O3)C2(C)O4`: the TGI in the experiment with SF-539 CNS came to 28200 nM; in the experiment on EKVX NSCLC, 62600 nM; with OVCAR-5 ovarian, 23700 nM; with HCC-2998 colon, 14100 nM; in the experiment on IGROV1 ovarian, 24900 nM; in the experiment with SNB-19 CNS, 37500 nM. In addition, the TGI was found to be 25100 nM with A549 NSCLC, 23500 nM in the experiment with UO-31 renal, 29400 nM in the experiment on TK-10 renal and 22600 nM in the experiment on CAKI-1 renal.
For the compound `NC(=O)c1c(NC(=O)c2cccc(C(F)(F)F)c2)sc2c1CCC(=O)C2`, the GI50 in the experiment on SF-539 CNS is 328 nM; in the experiment with EKVX NSCLC it was 2120 nM; with OVCAR-5 ovarian, 830 nM; in the experiment on HCC-2998 colon it was 2590 nM; with IGROV1 ovarian it was 468 nM; in the experiment with SNB-19 CNS, 432 nM. Further, the GI50 was 1880 nM in the experiment on A549 NSCLC, 291 nM in the experiment with UO-31 renal, 753 nM in the experiment with TK-10 renal and 351 nM with CAKI-1 renal. Also, the TGI with SF-539 CNS was 1230 nM; in the experiment with EKVX NSCLC it was greater than 100000 nM; in the experiment on OVCAR-5 ovarian, 9420 nM; with HCC-2998 colon, greater than 76900 nM; in the experiment on IGROV1 ovarian it was 3470 nM; in the experiment with SNB-19 CNS, greater than 100000 nM. The TGI with A549 NSCLC was greater than 100000 nM; in the experiment on UO-31 renal it was 1190 nM; in the experiment with TK-10 renal, 13300 nM; with CAKI-1 renal, 7290 nM.
Regarding `CC(=O)OC1Oc2cc(C)c(C)cc2-c2oc(=O)c(-c3ccccc3)cc21` (stereo unspecified), the GI50 in the experiment with SF-539 CNS is 232 nM; with EKVX NSCLC, 685 nM; in the experiment with OVCAR-5 ovarian it was 5180 nM; in the experiment with HCC-2998 colon it was 971 nM; with IGROV1 ovarian, 139 nM; in the experiment on SNB-19 CNS, 496 nM. Besides, the GI50 was 608 nM in the experiment on A549 NSCLC, 499 nM in the experiment with UO-31 renal, 1140 nM in the experiment on TK-10 renal and 525 nM in the experiment with CAKI-1 renal. Further, the TGI was 762 nM with SF-539 CNS; greater than 100000 nM with EKVX NSCLC; greater than 100000 nM in the experiment on OVCAR-5 ovarian; greater than 30800 nM with HCC-2998 colon; 432 nM with IGROV1 ovarian; 28700 nM in the experiment on SNB-19 CNS. Moreover, the TGI in the experiment on A549 NSCLC is greater than 53800 nM; with UO-31 renal, 35900 nM; with TK-10 renal it was greater than 44900 nM; in the experiment with CAKI-1 renal it was greater than 54100 nM.
For `CN1C=C(C(N)=O)C2CC(O)[C@@](NC(=O)CS(N)(=O)=O)(C(=O)O)C2C1` (stereo partly specified), the TGI was 4410 nM in the experiment on SF-539 CNS; greater than 42600 nM in the experiment with EKVX NSCLC; 6800 nM in the experiment with OVCAR-5 ovarian; 34000 nM in the experiment with HCC-2998 colon; 7830 nM in the experiment on IGROV1 ovarian; 19300 nM in the experiment on SNB-19 CNS. The TGI in the experiment on A549 NSCLC is greater than 36200 nM; in the experiment on UO-31 renal, 14100 nM; in the experiment on TK-10 renal, 28500 nM; in the experiment with CAKI-1 renal, greater than 100000 nM.
Take `CC(=O)c1c(Nc2ccc(F)c(F)c2F)[nH]c2c(F)cc(F)cc2c1=O`: the GI50 is 322 nM with SF-539 CNS; 303 nM with EKVX NSCLC; 552 nM with OVCAR-5 ovarian; 378 nM with HCC-2998 colon; 396 nM with IGROV1 ovarian; 354 nM in the experiment with SNB-19 CNS. Besides, the GI50 was 382 nM with A549 NSCLC, 123 nM in the experiment on UO-31 renal, 503 nM with TK-10 renal and 218 nM in the experiment on CAKI-1 renal. The TGI was 4330 nM in the experiment on SF-539 CNS; greater than 40400 nM with EKVX NSCLC; 25400 nM with OVCAR-5 ovarian; 13600 nM in the experiment on HCC-2998 colon; greater than 47400 nM with IGROV1 ovarian; greater than 70200 nM in the experiment on SNB-19 CNS. Also, the TGI in the experiment on A549 NSCLC is greater than 41800 nM; in the experiment with UO-31 renal, 742 nM; in the experiment on TK-10 renal it was 47800 nM; in the experiment with CAKI-1 renal, 1610 nM.
In the case of `COc1ccc2nc3cc(Cl)ccc3c(Nc3ccc(O)c(CN4CCCC4)c3)c2c1`, the GI50 in the experiment on SF-539 CNS was 1870 nM; in the experiment on EKVX NSCLC, 3180 nM; in the experiment with OVCAR-5 ovarian it was 2890 nM; in the experiment on HCC-2998 colon, 1670 nM; in the experiment with IGROV1 ovarian, 2600 nM; in the experiment with SNB-19 CNS, 2990 nM. The GI50 is 1990 nM in the experiment on A549 NSCLC, 1830 nM in the experiment on UO-31 renal, 2290 nM in the experiment on TK-10 renal and 2090 nM in the experiment on CAKI-1 renal. Further, the TGI with SF-539 CNS is 3490 nM; with EKVX NSCLC, 14400 nM; in the experiment on OVCAR-5 ovarian it was 7620 nM; with HCC-2998 colon, 3160 nM; with IGROV1 ovarian, 6670 nM; in the experiment on SNB-19 CNS it was 13900 nM. The TGI in the experiment with A549 NSCLC was 4060 nM; in the experiment on UO-31 renal it was 3700 nM; in the experiment on TK-10 renal, 4750 nM; in the experiment on CAKI-1 renal, 4880 nM.
